Results on two compounds are retold here after publication PMC5516003, “Betulinic acid is a PPARγ antagonist that improves glucose uptake, promotes osteogenesis and inhibits adipogenesis” (Scientific Reports, 2017).

In general, Kd refers to the constant that tells how readily two partners part at equilibrium. Low readings indicate a tighter complex, high ones a looser complex.

Test [1] deals with T1, PPARγ (Homo sapiens, UniProt P37231).
T1 construct: gene PPARG
T1 sequence (P37231 222-505): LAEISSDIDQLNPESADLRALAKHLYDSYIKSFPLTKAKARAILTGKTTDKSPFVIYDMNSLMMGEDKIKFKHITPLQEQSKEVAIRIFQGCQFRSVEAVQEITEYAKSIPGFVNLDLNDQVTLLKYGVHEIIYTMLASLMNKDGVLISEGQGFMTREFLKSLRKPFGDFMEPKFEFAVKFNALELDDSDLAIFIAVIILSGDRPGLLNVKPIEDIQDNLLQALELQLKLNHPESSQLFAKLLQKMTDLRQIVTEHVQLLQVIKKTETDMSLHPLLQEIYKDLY
As to the kind of experiment: ITC (reverse titration) and X-ray crystal structure; also affinity cartridge and GAL4 antagonist assay (IC50 […]). It is filed as binding.

Test [2] addresses T2, PPARγ (Homo sapiens, UniProt P37231).
T2 construct: gene PPARG; His-tagged PPARγ LBD
T2 sequence (P37231 231-505 limits assumed): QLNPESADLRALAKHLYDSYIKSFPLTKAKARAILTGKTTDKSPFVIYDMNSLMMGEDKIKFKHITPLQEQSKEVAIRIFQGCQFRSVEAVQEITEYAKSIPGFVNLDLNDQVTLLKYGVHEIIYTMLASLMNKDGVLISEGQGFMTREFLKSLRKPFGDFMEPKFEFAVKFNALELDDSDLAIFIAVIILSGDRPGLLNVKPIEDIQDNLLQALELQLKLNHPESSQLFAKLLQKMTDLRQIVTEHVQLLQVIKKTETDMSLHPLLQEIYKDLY
The experiment in a line: immobilized-receptor affinity cartridge (breakthrough shift); also GAL4 transactivation partial agonist, Emax […]. It is filed as binding.

`C=C(C)[C@@H]1CC[C@]2(C(=O)O)CC[C@]3(C)[C@H](CC[C@@H]4[C@@]5(C)CC[C@H](O)C(C)(C)[C@@H]5CC[C@]43C)[C@@H]12` [BA, betulinic acid] displayed a Kd on PPARγ [1] of 4 µM. Take `CC1=CC(=O)c2c(O)cccc2C1=O` [plumbagin]: the “immobilized-receptor affinity cartridge (breakthrough shift); also GAL4 transact” value at PPARγ [2] was “only three ligands (i.e., plumbagin, BA and coumarin) interact with the receptor”.
